Laboratory results from patent US12630532B2, “Indole-substituted quinolines and their combination with Plk1 inhibitors for the treatment of cancer” (UNIVERSITY OF KENTUCKY RESEARCH FOUNDATION, priority 2021, dated 2026).

What was measured:
[1] = system: LS174T colon cancer cell xenografts; experiment: In vivo antineoplastic activity and gross toxicity in LS174T xenografts
Method: Mouse studies were carried out with approval from the Institutional Animal Care and Use Committee of the University of Kentucky (2020-3531). All methods were performed in accordance with the relevant guidelines and regulations according to protocols. […] After tumors were established, mice were randomized according to tumor volume and divided into groups for treatments (five mice in each group, two tumors on each mouse).
The in vivo evaluation of ISQ-1 and BI2536 followed the approved protocol. After tumors were established, ISQ-1 was formulated in a mixture of Tween-80 (5%), DMSO (10%), PEG400 (25%) and PBS (60%) and was intraperitoneally administered to the ISQ-1 group at a daily dose of 20 mg/kg mouse body weight. The first day of treatment was set as day 0. At days 0, 4, and 7, BI2536 dissolved in 0.1 N HCl and then diluted 5-fold using 0.9% NaCl was given via gavage to the B12536 group. Mice in combination therapy group were treated with both ISQ-1 and BI2536 following aforementioned dosing schedules. At day 11 treatment was ceased and mice were sacrificed. Tumors and mouse weights were measured, and tumor volumes were calculated as Length×width^2/2.
Major biological assays were performed at least twice. Data were shown as mean SEM. For the mice study, five mice with two tumors on the lower flanks of each mouse were used in each treatment group. Sizes of the two tumors from each mouse were averaged, standardized by the tumor size on day 0, and log-transformed. ANOVA with Tukey's HSD test was used to compare the tumor size at the end of the study (day 11) between the combination therapy of ISQ-1 and B12536 and each single compound as well as the control. The equal variance assumption of ANOVA was assessed by Bartlett's test. All statistical studies were overseen in collaboration with a statistician in the University of Kentucky's Markey Cancer Center.

[2] = cited from earlier work
[3] = system: mitochondrial ETC complex I; experiment: Mitochondrial ETC complex activity measurements using PMP-permeabilized cells; type: cell-based; conditions: pyruvate substrate
Method: Mitochondrial ETC complex activity measurements were taken using the Agilent Seahorse Assay with XF PMP (Agilent, Santa Clara, CA) following manufacturer's instructions. Adherent monolayer cells were gently washed with mitochondrial assay solution (MAS) (220 mM mannitol, 70 mM sucrose, 10 mM KH2PO4, 5 mM MgCl2, 2 mM HEPES, 1 mM EGTA, and 0.2% (w/v) fatty acid free BSA) and cell growth media was replaced with MAS supplemented with 4 mM adenosine diphosphate (ADP), 10 mM pyruvate, and 1 nM PMP. Following calibration, the assay was immediately performed by measuring baseline with two cycles of 0.5 min mixing, 0.5 min waiting, and 2 min measuring. After baseline measurements, sequential injections of DMSO, compounds of interest or 2 μM rotenone, 10 mM succinate, 2 μM antimycin A, and a combination of 10 mM ascorbate and 100 μM TMPD were also performed with each followed by two cycles of 0.5 min mixing, 0.5 min waiting, and 2 min measuring. Data were then normalized to cell counts using the Biotek Cytation 1 (BioTek Instruments, Winooski, VT, USA).

Plk1 = experiment: Western blotting of cell signaling pathways in LS174T cells; type: cell-based; conditions: LS174T colon cancer cells, 24 hours
Method: (§1) Western blotting were performed according to previous procedures (25). Cells were split into 12-well plates. After 24 hours, compounds at indicated final concentrations were added to each well for another 24 hours unless otherwise noted. DMSO was used as a control. Cells were lysed in the appropriate volume of lysis buffer: 50 mM HEPES, 100 mM NaCl, 2 mM EDTA, 1% (v/v) glycerol, 50 mM NaF, 1 mM Na3VO4, 1% (v/v) Triton X-100, with protease inhibitors. Cell lysates were centrifuged, and supernatants were mixed with 6× protein loading buffer and boiled. The obtained samples were analyzed with standard western blotting methods with indicated antibodies.

LS174T cells = experiment: Cell proliferation inhibition assay (5 days, cell counting); type: cell-based
Method: Cell proliferation inhibition assays were done following a previous report (32). Cancer cells were seeded into 24-well plates at a density of 20,000 cells per well in 1 mL of culture medium and were cultured overnight at 37° C. Compounds and the vehicle control (DMSO) were added to the cells. After 5 days, the medium was removed, and 100 μL of trypsin was added. The cells were resuspended in phosphate-buffered saline (PBS) and were counted by Vi-CELL XR 2.03 (Beckman Coulter, Inc. USA). The ratio R of the number of viable cells in the compound treatment group to the number of viable cells in DMSO treatment group was taken as relative growth, and the percentage growth inhibition was calculated as (1−R)*100.

[4] = system: Wnt signaling target genes c-Myc and axin2; experiment: Western blotting of Wnt signaling target genes in LS174T cells; type: cell-based; conditions: 24 hours
Method: as §1

AMPK = AMPK activation (western blotting, pAMPK/pACC) in LS174T cells; type: cell-based
Method: as §1

[5] = system: mitochondrial ETC (electron transport chain); experiment: Seahorse assay (OCR) in Beas-2B cells; type: cell-based
Method: Seahorse assays were carried out following a published procedure (25). Briefly, 2.5×10^4 cells in 80 μL of medium were seeded in XF96 Cell Culture microplate for all experiments. On the next day, cell culture media were replaced with Seahorse XF modified media. Cells were treated with 1 μM of oligomycin A, 1.0 μM FCCP and mixture of 1.0 μM of rotenone and 1.0 μM of antimycin A in standard mitochondrial stress test conditions. To determine the uncoupler effects, FCCP was replaced with an equal volume of DMSO, or a compound to be tested in DMSO solution.

Compound	gross toxicities on the basis of mouse weight measurements ([1]; mouse, in vivo)	tumor growth of LS174T xenografts ([1]; nude mice, ISQ-1 20 mg/kg daily i.p., BI2536 30 mg/kg twice a week by gavage, day 11)	antitumor activity in Phase II clinical trials ([2]; Phase II)	safety in phase I clinical trials ([2]; phase I)	ETC complex I inhibition (pyruvate/NADH-linked respiration) [3]	Plk1 expression upon drug treatment (Plk1)	percentage inhibition of LS174T cell proliferation at 500 nM, compared among ISQs (FIG. 2B) (LS174T cells; 500 nM)	inhibition at 0.062 µM (LS174T cells; Homo sapiens, LS174T, 120 h, 62 nM, 5 days)	inhibition at 0.125 µM (LS174T cells; Homo sapiens, LS174T, 120 h, 125 nM, 5 days)	inhibition at 0.25 µM (LS174T cells; Homo sapiens, LS174T, 120 h, 250 nM, 5 days)	inhibition at 0.5 µM (LS174T cells; Homo sapiens, LS174T, 120 h, 500 nM, 5 days)	IC50 (LS174T cells; Homo sapiens, dose response studies, LS174T, read-out: IC50 values in cell proliferation assays)	effect on Wnt signaling target genes c-Myc and axin2 [4]	AMPK activation (AMPK)	ETC complex V inhibition (oligomycin replaced with compound) [5]	uncoupler effect (FCCP replaced with compound) [5]
CC[C@@H]1C(=O)N(C)c2cnc(Nc3ccc(C(=O)NC4CCN(C)CC4)cc3OC)nc2N1C1CCCC1 [BI2536, reference compound]	No gross toxicities	inhibited tumor growth but did not induce tumor regression	only limited antitumor activity	safe	–	–	–	–	–	–	–	–	–	–	–	–
Cn1cc(-c2cc3ccc(N4CCC(C#N)CC4)cc3nc2N)c2ccccc21 [ISQ-7, 1-(2-Amino-3-(1-methyl-1H-indol-3-yl)quinolin-7-yl)piperidine-4-carbonitrile]	–	–	–	–	inhibited complex I	induced	comparable to the N,N-dimethylamino group in ISQ-1	19 ± 5.5%	89 ± 0.2%	98 ± 0.6%	97 ± 0.7%	~0.1 µM	strongly inhibited	activated AMPK	did not inhibit ETC complex V	no uncouplers
